pIC50: −log10 of the molar value. Active and inactive are the calls of the source. The calls are words filed in the database; no cut-off is given here.
How the values were obtained:
Rattus norvegicus [1] = experiment: (§1) Antithrombotic activity in thromboplastin and stasis-induced Sprague-Dawley rat deep venous thrombosis model assessed as reduction in venous thrombosis at 2.36 mg/kg, sc administered 1 hr prior to thromboplastin addition for 20 secs followed by establishment of stasis for 20 mins relative to dHG-5; assay type: functional; details: time 80.33 min, 1.339 h
[2] = biological target: T1, Coagulation factor VII (Homo sapiens) (UniProt P08709); experiment: Inhibition of factor 7a (unknown origin) at IC50 using pefachrome factor VIIa as substrate preincubated for 1 min followed by chromogenic substrate addition and measured for 2 mins in presence of AT-III; details: time 3.0 min
T1 sequence (whole entry): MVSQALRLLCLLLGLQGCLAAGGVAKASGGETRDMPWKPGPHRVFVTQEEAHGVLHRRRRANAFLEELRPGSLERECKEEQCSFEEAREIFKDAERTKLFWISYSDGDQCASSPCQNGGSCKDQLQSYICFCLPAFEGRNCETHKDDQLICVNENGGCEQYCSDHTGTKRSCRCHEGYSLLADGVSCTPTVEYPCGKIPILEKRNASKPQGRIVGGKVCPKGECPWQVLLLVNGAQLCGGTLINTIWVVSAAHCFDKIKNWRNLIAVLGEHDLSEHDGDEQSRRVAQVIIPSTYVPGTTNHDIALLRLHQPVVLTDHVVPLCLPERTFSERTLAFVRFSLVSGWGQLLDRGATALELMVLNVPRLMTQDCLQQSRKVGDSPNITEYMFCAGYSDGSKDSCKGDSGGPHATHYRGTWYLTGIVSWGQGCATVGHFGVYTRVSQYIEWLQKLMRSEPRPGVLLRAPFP

[3] = biological target: Prothrombin (Homo sapiens) (UniProt P00734); experiment: Inhibition of factor 2a (unknown origin) at IC50 preincubated for 1 min followed by chromogenic substrate addition and measured for 2 mins; details: time 3.0 min
Plasma [4] = experiment: Anticoagulation activity in AT-III-deficient human plasma preincubated for 2 mins followed by APTT reagent and measured after 3 mins by coagulometric method; assay type: functional, cell-free; details: time 5.0 min
[5] = biological target: Coagulation factor XI (Homo sapiens) (UniProt P03951); experiment: Inhibition of factor 11a (unknown origin) at IC50 using S-2366 as substrate preincubated for 1 min followed by chromogenic substrate addition and measured for 2 mins; details: time 3.0 min
Coagulation factor XI (Homo sapiens), sequence (P03951 19-387 limits assumed): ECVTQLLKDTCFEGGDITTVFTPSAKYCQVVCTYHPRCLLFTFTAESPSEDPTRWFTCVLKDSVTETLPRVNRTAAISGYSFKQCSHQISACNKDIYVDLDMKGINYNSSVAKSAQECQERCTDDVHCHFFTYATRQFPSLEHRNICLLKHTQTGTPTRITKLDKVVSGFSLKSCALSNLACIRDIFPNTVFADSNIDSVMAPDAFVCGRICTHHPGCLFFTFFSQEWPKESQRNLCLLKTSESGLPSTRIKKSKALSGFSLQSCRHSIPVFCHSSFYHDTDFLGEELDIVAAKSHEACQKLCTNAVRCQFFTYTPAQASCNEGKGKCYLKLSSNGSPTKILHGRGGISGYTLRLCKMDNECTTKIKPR
Coagulation factor XI (Homo sapiens), sequence (P03951 388-625 limits assumed): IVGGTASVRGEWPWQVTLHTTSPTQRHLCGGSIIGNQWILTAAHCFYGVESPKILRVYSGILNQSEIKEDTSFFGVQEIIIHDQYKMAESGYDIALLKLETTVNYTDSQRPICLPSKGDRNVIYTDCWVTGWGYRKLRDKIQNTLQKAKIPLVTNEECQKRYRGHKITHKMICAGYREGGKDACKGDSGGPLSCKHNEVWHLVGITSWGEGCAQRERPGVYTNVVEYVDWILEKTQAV

[6] = biological target: Coagulation factor XI (Homo sapiens) (UniProt P03951); experiment: Inhibition of factor 11a (unknown origin) at IC90 using S-2366 as substrate preincubated for 1 min followed by chromogenic substrate addition and measured for 2 mins in presence of AT-III; details: time 3.0 min
Coagulation factor IX [7] = biological target: T2, Coagulation factor IX (Homo sapiens, UniProt P00740); experiment: Inhibition of factor 9a (unknown origin) binding to immobilized biotinylated oHG-11 by biolayer interferometry
T2 sequence (P00740 47-191 limits assumed): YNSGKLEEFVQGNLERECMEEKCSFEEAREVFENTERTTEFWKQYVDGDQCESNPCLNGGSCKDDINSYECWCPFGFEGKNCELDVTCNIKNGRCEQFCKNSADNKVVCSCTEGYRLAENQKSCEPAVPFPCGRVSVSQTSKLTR
T2 sequence (P00740 227-461 limits assumed): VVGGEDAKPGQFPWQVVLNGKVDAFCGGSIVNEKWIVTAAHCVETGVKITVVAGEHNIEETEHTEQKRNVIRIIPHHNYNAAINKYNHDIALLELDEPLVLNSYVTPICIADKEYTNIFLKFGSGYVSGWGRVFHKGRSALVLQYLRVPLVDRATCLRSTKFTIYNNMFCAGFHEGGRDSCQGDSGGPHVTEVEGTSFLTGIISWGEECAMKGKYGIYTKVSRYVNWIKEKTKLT

[8] = biological target: Coagulation factor XI (Homo sapiens) (UniProt P03951); experiment: Inhibition of factor 11a (unknown origin) at IC50 using S-2366 as substrate preincubated for 1 min followed by chromogenic substrate addition and measured for 2 mins in presence of AT-III; details: time 3.0 min
[9] = biological target: Coagulation factor X (Homo sapiens) (UniProt P00742); experiment: Inhibition of factor 10a (unknown origin) at IC50 preincubated for 1 min followed by chromogenic substrate addition and measured for 2 mins; details: time 3.0 min
Coagulation factor X (Homo sapiens), sequence (P00742 41-179 limits assumed): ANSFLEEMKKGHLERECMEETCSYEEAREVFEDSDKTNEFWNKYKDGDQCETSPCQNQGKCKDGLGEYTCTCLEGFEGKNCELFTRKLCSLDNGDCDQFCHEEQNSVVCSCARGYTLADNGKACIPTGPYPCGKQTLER
Coagulation factor X (Homo sapiens), sequence (P00742 235-488 limits assumed): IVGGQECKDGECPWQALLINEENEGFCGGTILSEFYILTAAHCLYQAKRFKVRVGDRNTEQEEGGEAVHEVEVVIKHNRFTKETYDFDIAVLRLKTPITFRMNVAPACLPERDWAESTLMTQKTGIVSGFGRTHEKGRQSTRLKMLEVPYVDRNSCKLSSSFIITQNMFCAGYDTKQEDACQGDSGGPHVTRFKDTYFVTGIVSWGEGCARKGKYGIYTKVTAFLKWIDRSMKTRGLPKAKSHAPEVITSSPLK

Plasma [10] = experiment: Anticoagulation activity in HCII-deficient human plasma preincubated for 2 mins followed by APTT reagent and measured after 3 mins by coagulometric method; assay type: functional, cell-free; details: time 5.0 min
Rattus norvegicus [11] = experiment: Antithrombotic activity in thromboplastin and stasis-induced Sprague-Dawley rat deep venous thrombosis model assessed as reduction in venous thrombosis at 2.36 mg/kg, sc administered 1 hr prior to thromboplastin addition for 20 secs followed by establishment of stasis for 20 mins; assay type: functional; parameters: scale not given: the % may be the effect or the level left; details: time 80.33 min, 1.339 h
Plasma [12] = experiment: Anticoagulation activity in human plasma assessed as drug level causing 20 times doubling of APTT by measuring activity potency of oligosaccharides multiplied by the percentage of oligosaccharides in dHG-5 preincubated for 2 mins followed by APTT reagent and measured after 3 mins by coagulometric method relative to dHG-5; assay type: functional; details: time 5 min
[13] = biological target: T3, Coagulation factor IX/VIII (Homo sapiens) (UniProt P00740+P00451); experiment: (§2) Inhibition of human citrated plasma iXase (factor 8a-factor 9a complex) preincubated for 2 mins followed by factor 10 addition and measured after 1 min by FXa chromogenic substrate SXa-11 based assay relative to dHG-5; assay type: protein-complex assay; details: time 3.0 min
Coagulation factor IX [14] = biological target: T2, Coagulation factor IX; experiment: Inhibition of factor 9a (unknown origin) binding to immobilized biotinylated oHG-11 by biolayer interferometry relative to dHG-5
[15] = biological target: T4, Coagulation factor XII (Homo sapiens) (UniProt P00748); experiment: Inhibition of factor 12a (unknown origin) at IC50 using kallikrein chromogenic substrate preincubated for 1 min followed by chromogenic substrate addition and measured for 2 mins in presence of AT-III; details: time 3.0 min
T4 sequence (whole entry): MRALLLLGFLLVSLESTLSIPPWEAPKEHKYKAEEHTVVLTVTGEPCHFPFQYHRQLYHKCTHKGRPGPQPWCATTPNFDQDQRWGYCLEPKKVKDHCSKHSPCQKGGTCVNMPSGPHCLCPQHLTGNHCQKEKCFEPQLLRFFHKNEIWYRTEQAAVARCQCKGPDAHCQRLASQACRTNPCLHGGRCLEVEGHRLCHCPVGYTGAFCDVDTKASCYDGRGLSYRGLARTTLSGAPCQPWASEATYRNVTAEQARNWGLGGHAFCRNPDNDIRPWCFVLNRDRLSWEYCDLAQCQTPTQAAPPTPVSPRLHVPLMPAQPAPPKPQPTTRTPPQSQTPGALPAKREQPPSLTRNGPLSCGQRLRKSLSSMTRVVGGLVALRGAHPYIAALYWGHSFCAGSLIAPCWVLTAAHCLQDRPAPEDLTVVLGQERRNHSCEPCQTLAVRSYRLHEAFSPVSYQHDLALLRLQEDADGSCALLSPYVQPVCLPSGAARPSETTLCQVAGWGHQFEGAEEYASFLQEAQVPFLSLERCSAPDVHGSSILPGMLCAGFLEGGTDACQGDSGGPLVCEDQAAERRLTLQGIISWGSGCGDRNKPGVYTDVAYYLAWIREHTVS

[16] = biological target: Coagulation factor IX/VIII (Homo sapiens, UniProt P00451+P00740); experiment: Inhibition of human citrated plasma iXase (factor 8a-factor 9a complex) preincubated for 2 mins followed by factor 10 addition and measured after 1 min by FXa chromogenic substrate SXa-11 based assay; assay type: protein-complex assay
Coagulation factor IX/VIII, sequence (P00451 20-759 limits assumed): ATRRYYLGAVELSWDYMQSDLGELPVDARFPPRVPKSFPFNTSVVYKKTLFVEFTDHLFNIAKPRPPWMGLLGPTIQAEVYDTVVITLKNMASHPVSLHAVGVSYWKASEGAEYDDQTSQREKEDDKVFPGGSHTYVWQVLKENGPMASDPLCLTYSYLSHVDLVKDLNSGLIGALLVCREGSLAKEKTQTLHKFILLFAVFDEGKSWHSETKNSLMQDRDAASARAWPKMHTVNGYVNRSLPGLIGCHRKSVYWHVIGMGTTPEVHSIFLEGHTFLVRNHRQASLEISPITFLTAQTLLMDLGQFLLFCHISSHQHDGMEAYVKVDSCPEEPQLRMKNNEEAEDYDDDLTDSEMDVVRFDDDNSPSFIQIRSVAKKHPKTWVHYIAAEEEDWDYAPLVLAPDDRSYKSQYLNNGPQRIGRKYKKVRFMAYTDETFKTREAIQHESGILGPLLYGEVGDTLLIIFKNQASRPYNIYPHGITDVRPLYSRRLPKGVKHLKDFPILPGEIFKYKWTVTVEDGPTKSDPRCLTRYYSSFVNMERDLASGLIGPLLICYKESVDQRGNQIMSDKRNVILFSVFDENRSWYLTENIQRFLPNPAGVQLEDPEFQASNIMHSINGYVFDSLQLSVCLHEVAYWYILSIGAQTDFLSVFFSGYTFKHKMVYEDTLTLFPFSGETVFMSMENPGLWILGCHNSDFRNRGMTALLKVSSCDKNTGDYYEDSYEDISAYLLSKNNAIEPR
Coagulation factor IX/VIII, sequence (P00451 1668-2351 limits assumed): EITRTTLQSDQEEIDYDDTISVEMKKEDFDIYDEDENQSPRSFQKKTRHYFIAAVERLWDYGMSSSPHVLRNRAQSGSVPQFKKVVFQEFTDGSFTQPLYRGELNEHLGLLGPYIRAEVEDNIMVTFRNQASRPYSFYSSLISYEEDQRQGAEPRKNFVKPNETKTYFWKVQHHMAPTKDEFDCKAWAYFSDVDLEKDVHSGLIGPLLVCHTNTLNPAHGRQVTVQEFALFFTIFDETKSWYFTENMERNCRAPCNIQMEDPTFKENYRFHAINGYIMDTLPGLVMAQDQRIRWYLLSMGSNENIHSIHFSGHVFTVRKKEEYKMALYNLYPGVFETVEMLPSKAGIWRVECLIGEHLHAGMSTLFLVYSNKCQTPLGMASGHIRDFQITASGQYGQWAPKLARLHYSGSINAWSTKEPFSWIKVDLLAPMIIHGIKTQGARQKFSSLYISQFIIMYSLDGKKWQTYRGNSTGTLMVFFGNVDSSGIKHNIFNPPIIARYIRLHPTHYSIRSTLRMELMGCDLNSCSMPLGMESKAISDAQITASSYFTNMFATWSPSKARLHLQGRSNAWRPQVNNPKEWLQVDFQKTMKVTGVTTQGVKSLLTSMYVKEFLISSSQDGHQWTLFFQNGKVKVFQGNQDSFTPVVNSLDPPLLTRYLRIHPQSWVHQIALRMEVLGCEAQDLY
Coagulation factor IX/VIII, sequence (P00740 47-191 limits assumed): as the sequence (P00740 47-191 limits assumed) above
Coagulation factor IX/VIII, sequence (P00740 227-461 limits assumed): as the sequence (P00740 227-461 limits assumed) above

Plasma [17] = experiment: Anticoagulation activity in human plasma assessed as drug level causing 20 times doubling of APTT preincubated for 2 mins followed by APTT reagent and measured after 3 mins by coagulometric method relative to dHG-5; assay type: functional; details: time 5 min
[18] = biological target: T4, Coagulation factor XII (Homo sapiens); experiment: Inhibition of factor 12a (unknown origin) at IC50 using kallikrein chromogenic substrate preincubated for 1 min followed by chromogenic substrate addition and measured for 2 mins; details: time 3.0 min
[19] = biological target: Coagulation factor X (Homo sapiens) (UniProt P00742); experiment: Inhibition of factor 10a (unknown origin) at IC50 preincubated for 1 min followed by chromogenic substrate addition and measured for 2 mins in presence of AT-III; details: time 3.0 min
[20] = biological target: T1, Coagulation factor VII (Homo sapiens); experiment: Inhibition of factor 7a (unknown origin) at IC50 using pefachrome factor VIIa as substrate preincubated for 1 min followed by chromogenic substrate addition and measured for 2 mins; details: time 3.0 min
Rattus norvegicus [21] = experiment: as §1, with “venous thrombosis by measuring activity potency of oligosaccharides multiplied by the percentage of oligosaccharides in dHG-5 at 2.36” for “venous thrombosis at 2.36”; assay type: functional; details: time 80.33 min, 1.339 h
[22] = biological target: Coagulation factor X (Homo sapiens) (UniProt P00742); experiment: Inhibition of factor 10a (unknown origin) at IC90 preincubated for 1 min followed by chromogenic substrate addition and measured for 2 mins in presence of AT-III relative to control; details: time 3.0 min
[23] = biological target: T3, Coagulation factor IX/VIII (Homo sapiens); experiment: as §2, with “complex) assessed as activity potency of oligosaccharides multiplied by the percentage of oligosaccharides in dHG-5” for “complex)”; assay type: protein-complex assay; details: time 3.0 min
[24] = biological target: Prothrombin (Homo sapiens) (UniProt P00734); experiment: Inhibition of factor 2a (unknown origin) at IC90 preincubated for 1 min followed by chromogenic substrate addition and measured for 2 mins in presence of AT-III; details: time 3.0 min
[25] = biological target: Prothrombin (Homo sapiens) (UniProt P00734); experiment: Inhibition of factor 2a (unknown origin) at IC50 preincubated for 1 min followed by chromogenic substrate addition and measured for 2 mins in presence of AT-III; details: time 3.0 min
Coagulation factor IX [26] = biological target: T2, Coagulation factor IX; experiment: Inhibition of factor 9a (unknown origin) binding to immobilized biotinylated oHG-11 assessed as activity potency of oligosaccharides multiplied by the percentage of oligosaccharides in dHG-5 by biolayer interferometry relative to dHG-5

SMILES: CC(=O)N[C@H]1[C@H](O[C@@H]([C@H](O[C@@H]2O[C@@H](C)[C@@H](OS(=O)(=O)[O-])[C@@H](OS(=O)(=O)O)[C@@H]2O)[C@@H](O)CO)[C@H](O)C(=O)[O-])O[C@H](COS(=O)(=O)[O-])[C@H](OS(=O)(=O)[O-])[C@@H]1O[C@@H]1O[C@H](C(=O)[O-])[C@@H](O[C@@H]2O[C@H](COS(=O)(=O)[O-])[C@H](OS(=O)(=O)[O-])[C@H](O[C@@H]3O[C@H](C(=O)[O-])[C@@H](O[C@@H]4O[C@H](COS(=O)(=O)[O-])[C@H](OS(=O)(=O)[O-])[C@H](O[C@@H]5O[C@H](C(=O)[O-])[C@@H](O[C@@H]6O[C@H](COS(=O)(=O)[O-])[C@H](OS(=O)(=O)[O-])[C@H](O[C@@H]7O[C@H](C(=O)[O-])[C@@H](O[C@@H]8O[C@H](COS(=O)(=O)[O-])[C@H](OS(=O)(=O)[O-])[C@H](O[C@@H]9OC(C(=O)[O-])=C[C@H](O[C@@H]%10O[C@@H](C)[C@@H](OS(=O)(=O)[O-])[C@@H](OS(=O)(=O)O)[C@@H]%10O)[C@H]9O)[C@H]8NC(C)=O)[C@H](O[C@@H]8O[C@@H](C)[C@@H](OS(=O)(=O)[O-])[C@@H](OS(=O)(=O)O)[C@@H]8O)[C@H]7O)[C@H]6NC(C)=O)[C@H](O[C@@H]6O[C@@H](C)[C@@H](OS(=O)(=O)[O-])[C@@H](OS(=O)(=O)O)[C@@H]6O)[C@H]5O)[C@H]4NC(C)=O)[C@H](O[C@@H]4O[C@@H](C)[C@@H](OS(=O)(=O)[O-])[C@@H](OS(=O)(=O)O)[C@@H]4O)[C@H]3O)[C@H]2NC(C)=O)[C@H](O[C@@H]2O[C@@H](C)[C@@H](OS(=O)(=O)[O-])[C@@H](OS(=O)(=O)O)[C@@H]2O)[C@H]1O.[Na+].[Na+].[Na+].[Na+].[Na+].[Na+].[Na+].[Na+].[Na+].[Na+].[Na+].[Na+].[Na+].[Na+].[Na+].[Na+].[Na+].[Na+].[Na+].[Na+].[Na+].[Na+]
- Ratio (Rattus norvegicus [1]): 123.01 U
- inhibition [2]: inactive
- inhibition [3]: inactive
- Activity (Plasma [4]): Active
- inhibition [5]: inactive
- inhibition [6]: Active
- pIC50 (Coagulation factor IX [7]): 6.38
- inhibition [8]: inactive
- inhibition [9]: inactive
- Activity (Plasma [10]): Active
- Activity (Rattus norvegicus [11]): 58.4%
- Ratio (Plasma [12]): 14.17 U
- Ratio [13]: 81.6 U
- Ratio (Coagulation factor IX [14]): 103 U
- inhibition [15]: inactive
- pIC50 [16]: 7.76
- Ratio (Plasma [17]): 104.07 U
- inhibition [18]: inactive
- inhibition [19]: inactive
- inhibition (active/not active) [20]: inactive
- Ratio (Rattus norvegicus [21]): 16.73 U
- inhibition [22]: inactive
- Ratio [23]: 11.1 U
- inhibition [24]: Active
- inhibition [25]: inactive
- Ratio (Coagulation factor IX [26]): 14.1 U
